Broadly, the IC50 is the point on the concentration scale where inhibition reaches its midpoint. Read a low IC50 as higher potency.

Data set [1] is described as follows: Hepatic extraction ratio in human liver microsomes at 1 uM in presence of NADPH by LC-MS/MS method. The data set is classed as ADME. The following applies: read-out: ERH. In general terms: Liver microsomes are vesicles of endoplasmic reticulum, rich in cytochrome P450 enzymes.
Data set [2] has as its target Serine/threonine-protein kinase B-raf (Homo sapiens, UniProt P15056, V600E). The experiment in a line: Inhibition of B-Raf V600E mutant (unknown origin) using biotinylated Mek substrate incubated for 60 mins by amplified luminescence proximity homogeneous assay.
Data set [3] can be described thus: Antitumor activity against human A375 cells xenografted in Nu/Nu mouse assessed as tumor volume level at 1 mg/kg, dosed BID for 14 days commencing on day 19 measured after 14 days post-first dose relative to initial tumor volume. Format: functional, A-375. (In general: In xenograft studies the graft and the host belong to different species.)
Data set [4] in a line: Antitumor activity against human A375 cells xenografted in Nu/Nu mouse assessed as tumor volume level at 20 mg/kg, dosed BID for 14 days commencing on day 19 measured after 14 days post-first dose relative to initial tumor volume. The data set is classed as functional, A-375.
Data set [5] is described as follows: Antitumor activity against human A375 cells xenografted in Nu/Nu mouse assessed as tumor volume level at 10 mg/kg, dosed BID for 14 days commencing on day 19 measured after 14 days post-first dose relative to initial tumor volume. Format: functional, A-375.
Data set [6] is described as follows: Antitumor activity against human A375 cells xenografted in Nu/Nu mouse assessed as tumor volume level at 3 mg/kg, dosed BID for 14 days commencing on day 19 measured after 14 days post-first dose relative to initial tumor volume. The data set is classed as functional, A-375.

Sequence of Serine/threonine-protein kinase B-raf (P15056 2-766 V600E limits assumed): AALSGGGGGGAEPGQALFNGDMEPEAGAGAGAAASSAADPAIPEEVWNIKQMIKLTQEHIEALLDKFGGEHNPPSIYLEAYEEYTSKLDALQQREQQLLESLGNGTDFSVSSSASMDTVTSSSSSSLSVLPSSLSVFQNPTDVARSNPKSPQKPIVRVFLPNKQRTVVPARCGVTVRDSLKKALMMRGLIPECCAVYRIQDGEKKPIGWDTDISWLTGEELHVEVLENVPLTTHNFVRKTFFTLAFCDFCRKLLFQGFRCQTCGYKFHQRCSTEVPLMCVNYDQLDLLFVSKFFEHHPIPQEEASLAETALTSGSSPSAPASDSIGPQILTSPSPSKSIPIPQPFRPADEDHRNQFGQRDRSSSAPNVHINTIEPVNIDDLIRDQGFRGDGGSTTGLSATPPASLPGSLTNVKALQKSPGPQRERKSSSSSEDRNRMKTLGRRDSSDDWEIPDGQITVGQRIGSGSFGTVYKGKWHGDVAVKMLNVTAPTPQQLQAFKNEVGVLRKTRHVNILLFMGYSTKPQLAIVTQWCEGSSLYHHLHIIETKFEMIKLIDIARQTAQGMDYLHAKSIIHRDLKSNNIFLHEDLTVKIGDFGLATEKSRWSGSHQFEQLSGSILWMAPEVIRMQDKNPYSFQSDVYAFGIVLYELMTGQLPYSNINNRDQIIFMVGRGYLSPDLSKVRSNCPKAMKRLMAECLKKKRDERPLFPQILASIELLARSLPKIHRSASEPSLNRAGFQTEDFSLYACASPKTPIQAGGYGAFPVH

With `COC(=O)N[C@@H](C)CNc1nccc(-c2cn(C(C)C)nc2-c2cccc(NS(C)(=O)=O)c2F)n1`, in data set [1], the hepatic extraction ratio at 1 µM is less than 0.31.

The molecule `COC(=O)N[C@@H](C)CNc1nccc(-c2cn(C(C)C)nc2-c2cc(C)cc(NS(C)(=O)=O)c2F)n1` had an IC50 in data set [2] of 0.95 nM. In other words, the sub-nanomolar range.

Molecule `COC(=O)N[C@@H](C)CNc1nccc(-c2cn(C(C)C)nc2-c2cc(C)cc(NS(C)(=O)=O)c2Cl)n1` displayed a half-inhibitory concentration (IC50) in data set [2] of 1 nM.

Consider `COC(=O)N[C@@H](C)CNc1nccc(-c2cn(C(C)C)nc2-c2cc(Cl)cc(NS(C)(=O)=O)c2F)n1` [ENCORAFENIB], for which the Activity in data set [3] is 20 - 50%; in data set [4] it was less than 80%; in data set [5] it was less than 80%; in data set [6], 20%.
